Results taken from the supplement of paper PMC11061612.

What was measured:
Assay in all cases: combination Emax (second highest fraction inhibited in the dose matrix, 72 h); higher = more inhibition; extreme values may be limits of the assay
[1] = test system: NKM-1 (Acute Myeloid Leukemia)
Procedure, shortened: (§1)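 After 24 hours at 37°C and 5% CO2 in 1536-well plates, cells in DMEM/F12 or RPMI plus 10% FBS received two-drug dose matrices for 72 hours. Viability came from CellTiter-Glo 2.0 luminescence and was scaled as inhibition, anchored at 0 by vehicle wells and at 1 by blank wells. Combination Emax is taken as the second-highest inhibition in the matrix, and Bliss excess as the observed combination effect less EA + EB − EA·EB, with EA and EB the single-agent effects.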

[2] = test system: NCI-H810 (Non-Small Cell Lung Carcinoma)
Procedure, shortened: as §1

[3] = test system: SNU-175 (Colorectal Carcinoma)
Procedure, shortened: as §1

[4] = test system: LAMA-84 (Chronic Myelogenous Leukemia)
Procedure, shortened: as §1

[5] = test system: Calu-6 (Non-Small Cell Lung Carcinoma)
Procedure, shortened: as §1

[6] = test system: RT4 (Bladder Carcinoma)
Procedure, shortened: as §1

[7] = test system: NCI-H1623 (Lung Adenocarcinoma)
Procedure, shortened: as §1

[8] = test system: NCI-H1563 (Lung Adenocarcinoma)
Procedure, shortened: as §1

[9] = test system: CML-T1 (Chronic Myelogenous Leukemia)
Procedure, shortened: as §1

[10] = test system: Caov-3 (Ovarian Carcinoma)
Procedure, shortened: as §1

[11] = test system: 786-0 (Kidney Carcinoma)
Procedure, shortened: as §1

[12] = test system: COLO-684 (Endometrial Carcinoma)
Procedure, shortened: as §1

[13] = test system: HTC-C3 (Thyroid Gland Carcinoma)
Procedure, shortened: as §1

[14] = test system: Becker (Low Grade Glioma)
Procedure, shortened: as §1

[15] = test system: SJRH30 (Rhabdomyosarcoma)
Procedure, shortened: as §1

[16] = test system: RL95-2 (Endometrial Carcinoma)
Procedure, shortened: as §1

[17] = test system: NCI-H1155 (Non-Small Cell Lung Carcinoma)
Procedure, shortened: as §1

[18] = test system: FLO-1 (Esophageal Adenocarcinoma)
Procedure, shortened: as §1

[19] = test system: BALL-1 (B-Lymphoblastic Leukemia)
Procedure, shortened: as §1

[20] = test system: KYSE-70 (Esophageal Squamous Cell Carcinoma)
Procedure, shortened: as §1

SMILES	combination Emax [1]	combination Emax [2]	combination Emax [3]	combination Emax [4]	combination Emax [5]	combination Emax [6]	combination Emax [7]	combination Emax [8]	combination Emax [9]	combination Emax [10]	combination Emax [11]	combination Emax [12]	combination Emax [13]	combination Emax [14]	combination Emax [15]	combination Emax [16]	combination Emax [17]	combination Emax [18]	combination Emax [19]	combination Emax [20]
Cc1cc2ncnn2cc1Nc1ncc2c(n1)n(C1CCOCC1)c(=O)n2C [AZD7648] + CN(C)CCCOc1ccc(-c2ccc3ncc4c(c3c2)n(C2CCOCC2)c(=O)n4C)cn1 [AZD0156] (first compound max 10 µM, 7x7, partner max 1 µM)	0.384	0.287	0.173	0.202	0.381	0.42	0.257	0.49	0.388	0.366	0.18	0.28	0.161	0.184	0.165	0.246	0.319	0.358	0.295	0.211
Cc1c2c(nn1C)CSCc1cc(n(C)n1)CSc1cc(c3ccccc3c1)OCCCc1c(C(=O)O)n(C)c3c-2c(Cl)ccc13 [AZD5991] + Cc1cc2ncnn2cc1Nc1ncc2c(n1)n(C1CCOCC1)c(=O)n2C [AZD7648] (first compound max 1 µM, 7x7, partner max 10 µM)	0.984	0.514	0.461	0.22	0.29	0.358	0.952	0.701	0.332	0.388	0.251	0.315	0.245	0.177	0.478	0.999	0.257	0.489	0.556	0.159
CN(CCO)CC[C@H](CSc1ccccc1)Nc1ccc(S(=O)(=O)NC(=O)c2ccc(N3CCC([C@@H](O)c4ccccc4-c4ccc(Cl)cc4)CC3)cc2)cc1S(=O)(=O)C(F)(F)F [AZD4320] + C=CCn1c(=O)c2cnc(Nc3ccc(N4CCN(C)CC4)cc3)nc2n1-c1cccc(C(C)(C)O)n1 [AZD1775] (first compound max 1 µM, partner max 1 µM)	1	0.954	0.717	1	0.928	0.629	0.608	0.26	1	0.979	0.715	0.763	0.742	0.261	0.93	0.53	0.908	0.977	1	0.67
Cc1c2c(nn1C)CSCc1cc(n(C)n1)CSc1cc(c3ccccc3c1)OCCCc1c(C(=O)O)n(C)c3c-2c(Cl)ccc13 [AZD5991] + Cn1cnc2c(F)c(Nc3ccc(Br)cc3Cl)c(C(=O)NOCCO)cc21 [Selumetinib] (first compound max 1 µM, 7x7, partner max 3 µM)	0.989	0.322	0.714	0.912	0.635	0.352	0.898	0.551	0.344	0.501	0.251	0.261	0.598	0.274	0.512	1	0.363	0.386	0.271	0.188
C=CCn1c(=O)c2cnc(Nc3ccc(N4CCN(C)CC4)cc3)nc2n1-c1cccc(C(C)(C)O)n1 [AZD1775] + O=C(c1cc(Cc2n[nH]c(=O)c3ccccc23)ccc1F)N1CCN(C(=O)C2CC2)CC1 [Olaparib] (first compound max 1 µM, partner max 10 µM)	0.945	0.926	0.447	0.943	0.708	0.283	0.605	0.215	0.962	0.716	0.543	0.625	0.365	0.216	0.777	0.486	0.454	0.878	0.985	0.655
CC1(C)CCC(CN2CCN(c3ccc(C(=O)NS(=O)(=O)c4ccc(NCC5CCOCC5)c([N+](=O)[O-])c4)c(Oc4cnc5[nH]ccc5c4)c3)CC2)=C(c2ccc(Cl)cc2)C1 [Venetoclax] + C1CN(CCC1(C(=O)N[C@@H](CCO)C2=CC=C(C=C2)Cl)N)C3=NC=NC4=C3C=CN4 [Capivasertib] (first compound max 1 µM, 7x7, partner max 3 µM)	1	0.113	0.162	0.371	0.111	0.0704	0.314	0.396	0.935	0.553	0.37	0.625	0.163	0.359	0.387	0.494	0.289	0.192	1	0.234
